Read-outs that look alike come from different tables or passages of the source.
Legend:
[1] = tested on: B16 melanocytes; experiment: Cell viability, MTT reduction test; assay type: cell-based
Protocol: The melanocytes were seeded in a 96-well plate and were cultured for 24 h (37° C., 5% CO2, DMEM 1 g/L glucose without phenol red supplemented with glucose at 3 g/L, L-glutamine at 2 mM, penicillin at 50 U/mL, streptomycin at 50 μg/mL, foetal calf serum (FCS) at 10%). After incubation, the culture medium was then replaced with culture medium supplemented or not supplemented (unstimulated control) with a stable derivative of α-MSH and containing or not containing (controls) the test compounds or the reference (kojic acid at 25, 100, 400, 800 μg/mL). Each experiment was carried out with n=3, apart from the controls carried out with n=6, then the cells were incubated for 72 h. Wells without cells received in parallel the same quantities of medium supplemented or not supplemented with NDP-MSH and containing or not containing the test compounds or the reference in order to quantify the background noise associated with the presence of the compounds. At the end of the treatment, the cells were incubated in the presence of MTT (tetrazolium salt), the transformation of which to blue crystals of formazan is proportional to the activity of succinate dehydrogenase (mitochondrial enzyme). After dissociation of the cells, the formazan was dissolved in DMSO medium and the optical density (OD), representative of the number of living cells and of their metabolic reactivity, was measured with a microplate reader at 540 nm (VERSAmax, Molecular Devices). The operating conditions are the same as in Example 12.

[2] = tested on: B16 melanocytes stimulated with NDP-MSH; experiment: Anti-melanogenesis activity: melanin synthesis in B16 melanocytes stimulated with NDP-MSH; assay type: cell-based
Protocol: The depigmenting effect was evaluated on a line of type B16 melanocytes stimulated with NDP-MSH, (natural hormone stimulating melanogenesis; Melanocyte Stimulating Hormone, [Nle, DPhe]-α-MSH). Melanin synthesis was evaluated.
The anti-melanogenesis activity of the compounds in solution in DMSO was evaluated by measuring melanin synthesis in a model of B16 melanocytes stimulated with a stable derivative of α-MSH (natural melanogenesis stimulating hormone): NDP-MSH.
The melanocytes were seeded in a 96-well plate and were cultured for 24 h (37° C., 5% CO2, DMEM 1 g/L glucose without phenol red supplemented with glucose at 3 g/L, L-glutamine at 2 mM, penicillin at 50 U/mL, streptomycin at 50 μg/mL, foetal calf serum (FCS) at 10%). After incubation, the culture medium was then replaced with culture medium supplemented or not supplemented (unstimulated control) with a stable derivative of α-MSH and containing or not containing (controls) the test compounds or the reference (kojic acid at 25, 100, 400, 800 μg/mL). Each experiment was carried out with n=3, apart from the controls carried out with n=6, then the cells were incubated for 72 h. Wells without cells received in parallel the same quantities of medium supplemented or not supplemented with NDP-MSH and containing or not containing the test compounds or the reference in order to quantify the background noise associated with the presence of the compounds.
After incubation for 72 hours, the total melanin (intra- and extracellular) was quantified by measuring the absorption at 405 nm of each sample (direct reading of the culture plates) against a standard range of melanin (melanin concentrations tested from 0.78 to 100 μg/mL). The background noise, measured in the wells without cells, was subtracted from the measured values so as only to take into account the effect connected with melanin production, without taking into account the possible interference connected with the presence of the compounds. The results were expressed as percentage of melanin relative to the control as well as percentage inhibition.
The operating conditions are the same as in Example 12.

[3] = Melanocyte, 30 μM, NDP-MSH stimulated B16, 72 h, Table 2, read-out: Standardized data Inhibition (%) (melanin)
[4] = Melanocyte, 100 μM, NDP-MSH stimulated B16, 72 h, Table 2, read-out: Standardized data Inhibition (%) (melanin)
[5] = Melanocyte, NDP-MSH stimulated B16, 72 h, Table 2, read-out: Standardized data Inhibition (%) (melanin)
[6] = 30 μM, NDP-MSH stimulated B16, 72 h, Table 2
[7] = 100 μM, NDP-MSH stimulated B16, 72 h, Table 2
[8] = Melanocyte, 30 μM, comparison with 2 reference molecules, Table 3, read-out: Standardized data Inhibition (%) (melanin)
[9] = Melanocyte, 100 μM, comparison with 2 reference molecules, Table 3, read-out: Standardized data Inhibition (%) (melanin)

SMILES	Viability (MTT) % stimulated control ([1]; 30 μM, B16, 72 h, Table 2)	Viability (MTT) % stimulated control ([1]; 100 μM, B16, 72 h, Table 2)	inhibition at 30 µM [2, 3]	inhibition at 100 µM [2, 4]	other results
COc1ccccc1CCOc1ccc(F)cc1 [Compound 16]	87%	83%	-33%	52%	
Cc1ccc(OCCc2ccccc2O)cc1 [Compound 2]	108%	34%	100%	112%	
COc1ccccc1OCC(O)c1ccccc1O (stereo not drawn) [Compound 125]	90%		13%		
CCC(C)(C)c1ccc(OCCc2ccccc2O)cc1 [Compound 43]	9%		120%		Viability (MTT) % stimulated control ([1]; 3 μM, B16, 72 h, Table 2): 116%; Viability (MTT) % stimulated control ([1]; 10 μM, B16, 72 h, Table 2): 90%; inhibition at 3 µM [2, 5]: 88%; inhibition at 10 µM [2, 5]: 119%
COc1ccc(OCCc2ccccc2O)cc1 [Compound 4]	97%	54%			Standardized data Inhibition (%) (melanin) [2, 6]: 95%; Standardized data Inhibition (%) (melanin) [2, 7]: 111%
Oc1ccccc1C(O)COc1ccc(F)cc1 (stereo not drawn) [Compound 24]	76%	78%	-12%	84%	
Oc1ccccc1CCOc1ccc(Br)cc1 [Compound 3]	96%	0%	110%	112%	
O=[N+]([O-])c1ccc(OCCc2ccccc2O)cc1 [Compound 19]	91%	0%	82%	111%	
COc1ccc(CCCc2ccc(O)cc2O)c(OC)c1C [Ref 2, 1-(2,4-dihydroxyphenyl)-3-(2,4-dimethoxy-3-methylphenyl)propane, reference compound]					Viability (MTT) % stimulated control ([1]; 30 μM, comparison with 2 reference molecules, Table 3): 102%; Viability (MTT) % stimulated control ([1]; 100 μM, comparison with 2 reference molecules, Table 3): 76%; inhibition at 30 µM [2, 8]: 45%; inhibition at 100 µM [2, 9]: 113%
Oc1ccccc1CCOc1ccccc1 [Compound 5]	103%	67%			Standardized data Inhibition (%) (melanin) [2, 6]: 49%; Standardized data Inhibition (%) (melanin) [2, 7]: 111%
Fc1ccc(CCOc2ccccc2OCc2ccccc2)cc1 [Compound 25]	93%		46%		
CC(C)(C)c1ccc(OCCc2ccccc2O)cc1 [Compound 47]	18%		116%		Viability (MTT) % stimulated control ([1]; 3 μM, B16, 72 h, Table 2): 116%; Viability (MTT) % stimulated control ([1]; 10 μM, B16, 72 h, Table 2): 89%; inhibition at 3 µM [2, 5]: 75%; inhibition at 10 µM [2, 5]: 111%
COc1ccccc1C1(COc2ccc(F)cc2)CC1 [Compound 18]	80%	75%	-21%	105%	
O=c1cc(CO)occ1O [Kojic acid, reference compound]					Viability (MTT) % stimulated control ([1]; 25 μg/mL, B16, 72 h, Table 2): 85%; Viability (MTT) % stimulated control ([1]; 100 μg/mL, B16, 72 h, Table 2): 76%; Viability (MTT) % stimulated control ([1]; 400 μg/mL, B16, 72 h, Table 2): 76%; inhibition at 25 µg/mL ([2]; Melanocyte, 25 μg/mL, NDP-MSH stimulated B16, 72 h, Table 2, read-out: Standardized data Inhibition (%) (melanin)): 24%; inhibition at 100 µg/mL ([2]; Melanocyte, 100 μg/mL, NDP-MSH stimulated B16, 72 h, Table 2, read-out: Standardized data Inhibition (%) (melanin)): 78%; inhibition at 400 µg/mL ([2]; Melanocyte, 400 μg/mL, NDP-MSH stimulated B16, 72 h, Table 2, read-out: Standardized data Inhibition (%) (melanin)): 90%
Fc1ccc(OCCc2ccccc2Br)cc1 [Compound 8]	94%	93%			Standardized data Inhibition (%) (melanin) [2, 6]: −27%; Standardized data Inhibition (%) (melanin) [2, 7]: 50%
CCOc1ccc(OCC(O)c2ccccc2O)cc1 (stereo not drawn) [Compound 57]	97%		47%		

SMILES	Viability (MTT) % stimulated control ([1]; 30 μM, B16, 72 h, Table 2)	Viability (MTT) % stimulated control ([1]; 100 μM, B16, 72 h, Table 2)	inhibition at 30 µM [2, 3]	inhibition at 100 µM [2, 4]	other results
Oc1ccccc1CCOc1ccc(OCc2ccccc2)cc1 [Compound 20]	59%		115%		Viability (MTT) % stimulated control ([1]; 3 μM, B16, 72 h, Table 2): 106%; Viability (MTT) % stimulated control ([1]; 10 μM, B16, 72 h, Table 2): 84%; inhibition at 3 µM [2, 5]: 83%; inhibition at 10 µM [2, 5]: 108%
CC(=O)OC[C@H]1OC(Oc2ccccc2CCOc2ccc(F)cc2)[C@H](OC(C)=O)[C@@H](OC(C)=O)[C@@H]1OC(C)=O (stereo partly drawn) [Compound 30]	88%		13%		
CCc1ccc(OCCc2ccccc2O)cc1 [Compound 35]	88%		112%		Viability (MTT) % stimulated control ([1]; 3 μM, B16, 72 h, Table 2): 105%; Viability (MTT) % stimulated control ([1]; 10 μM, B16, 72 h, Table 2): 97%; inhibition at 3 µM [2, 5]: 54%; inhibition at 10 µM [2, 5]: 92%
CCCc1ccc(OCCc2ccccc2O)cc1 [Compound 130]	81%		116%		Viability (MTT) % stimulated control ([1]; 3 μM, B16, 72 h, Table 2): 98%; Viability (MTT) % stimulated control ([1]; 10 μM, B16, 72 h, Table 2): 89%; inhibition at 3 µM [2, 5]: 72%; inhibition at 10 µM [2, 5]: 110%
Fc1ccc(OCCc2ccccc2C(F)(F)F)cc1 [Compound 10]	87%	91%	-11%	27%	
Oc1ccccc1CCOc1ccc(Cl)cc1 [Compound 31]	88%		109%		Viability (MTT) % stimulated control ([1]; 3 μM, B16, 72 h, Table 2): 91%; Viability (MTT) % stimulated control ([1]; 10 μM, B16, 72 h, Table 2): 104%; inhibition at 3 µM [2, 5]: 20%; inhibition at 10 µM [2, 5]: 70%
COc1ccc(OCCc2ccccc2OC)cc1 [Compound 14]	89%	80%	-22%	100%	
CC(C)c1ccc(OCCc2ccccc2O)cc1 [Compound 39]	86%		119%		Viability (MTT) % stimulated control ([1]; 3 μM, B16, 72 h, Table 2): 119%; Viability (MTT) % stimulated control ([1]; 10 μM, B16, 72 h, Table 2): 101%; inhibition at 3 µM [2, 5]: 70%; inhibition at 10 µM [2, 5]: 111%
CC(C)c1ccc(OCC(=O)c2ccccc2O)cc1 [Compound 40]	90%		58%		Viability (MTT) % stimulated control ([1]; 10 μM, B16, 72 h, Table 2): 102%; inhibition at 10 µM [2, 5]: 5%
CCCCc1ccc(O)cc1O [Ref 1, 4-(2,4-dihydroxyphenyl)butane, reference compound]					inhibition at 30 µM [2, 8]: 82%; inhibition at 100 µM [2, 9]: 100%
CCC(C)(C)c1ccc(OCC(=O)c2ccccc2O)cc1 [Compound 44]	80%		117%		Viability (MTT) % stimulated control ([1]; 10 μM, B16, 72 h, Table 2): 89%; inhibition at 10 µM [2, 5]: 24%
CC(=O)Nc1ccc(OCCc2ccccc2OC(C)=O)cc1 [Compound 22]	97%	86%	-3%	61%	
Oc1ccc(OCCc2ccccc2F)cc1 [Compound 27]	77%		95%		
CC(=O)O[C@@H]1[C@@H](OC(C)=O)[C@@H](OC(C)=O)C(Oc2ccccc2CCOc2ccc(F)cc2)O[C@H]1C (stereo partly drawn) [Compound 127]	90%		29%		
Cc1cccc(CCOc2ccc(F)cc2)c1 [Compound 11]	83%	109%	-2%	44%	
